One may read the Km as the substrate concentration at which the rate is half of its maximum.

Molecules are shown by their SMILES.

The test has as its system T1, c-NKCC2 (chimeric NKCC1-NKCC2 construct).
T1 construct: gene SLC12A2; single polypeptide chimera: NKCC1 backbone with whole NKCC1 transmembrane domain, C-terminal apical sorting domain exchanged for that of mammalian NKCC2 isoform B; N-terminal HA tag; stably expressed in LLC-PK1 cells; NKCC2 part possibly rabbit; with Solute carrier family 12 member 1 (isoform B, C-terminal apical sorting domain)
The test is described as follows: FluxOR Tl+ influx fluorescence, initial rate, FlexStation, stably transfected LLC-PK1 cells. The class given is cell-based. As to conditions: external Cl- 3-135 mM (gluconate replacement); co-substrates Na+ and Tl+ (2 mM Tl2SO4), K+-free, pH 7.4; single-site fit; Cl- starved cells.

With `Cl` [Cl^-], the Michaelis constant (Km) is 23.4 mM.

(Values after PMC3618206, “High-throughput fluorescent-based NKCC functional assay in adherent epithelial cells” (BMC Cell Biology, 2013).)
